Experimental data as given in patent US20040009927A1, “Methods and compounds for reducing biofilm formulation” (priority 2002, published 2004).

Test system: MG1655 and its csrA mutant TRMG1655, cya mutants and cya wild type
Conditions: cAMP 2 or 5 mM in growth medium; in most cases

Structure (SMILES): Nc1ncnc2c1ncn2[C@@H]1O[C@@H]2COP(=O)(O)O[C@H]2[C@H]1O [cAMP, cyclic AMP]
- biofilm formation by cya wild type strains: increased biofilm formation
